Laboratory results reported in US20260184697A1, “EZH1/2 INHIBITOR, PREPARATION THEREOF, AND USE THEREOF IN ANTI-TUMOR THERAPY” (JIANGSU TASLY DIYI PHARMACEUTICAL CO., LTD., priority 2022, published 2026).
Like-named read-outs stand apart in the source and are kept apart here.

How the values were obtained:
Karpas-422 cells = assay: Anti-proliferation by Cell Titer-Glo method (Test Example 3); assay type: cell-based; conditions: Homo sapiens
Method: Karpas-422 (Nanjing Kebai, CBP60629) cells were seeded in a 96-well plate (Corning, 3894) at 1,000 cells per well in growth medium (80% 1640 (Hyclone, SH30809.01)+20% FBS (Corning, 35-081-CV)), in a total of 100 μL, and then was added with 25 μL of 5-fold different concentrations of compounds diluted in growth medium. The cell growth group without compound addition was used as a positive control (maximum signal control), and the medium was used as a negative control (minimum signal control), while ensuring that the final contration of DMSO in each reaction well was 0.2%. Then the 96-well cell plate was placed in a cell culture incubator (37° C., 5% CO2) and incubated for 3 days. On the fourth day, the cell culture plate was taken out of the incubator, using a row gun to gently blow the cells up and down to mix, removing 62.5 μL of the cell suspension, adding 50 μL of growth medium and 12.5 μL of compounds of 5 times different concentrations, and then putting them in the cell incubator to incubate for 4 days. On the eighth day, the same method was used as the fourth day to treat the cells, then incubating in the cell culture incubator for 3 days. On the eleventh day, the Cell-Titer Glo (Promega, G7573) was used to detect cell viability, and a microplate reader was used to detect the signal value of luminescence.
The inhibition rate of different concentrations of compounds on cells was calculated as inhibition rate=[1−(compound signal value−negative control signal value)/(positive control signal value-negative control signal value)][…]. The IC50 of the compound on cell activity inhibition was calculated by GraphPad Prism 6 with log(inhibitor) vs. response-Variable slope model fitting. The fitting equation is: Y=Bottom+(Top−Bottom)/(1+10^((Log IC50−X)*Hill Slope)), wherein Y represents the inhibition rate, and X represents the known concentration of the compound after Log.

[1] = test system: H3K27Me3 methylation in Karpas-422 cells; assay: H3K27Me3 cell method, inhibition of H3K27Me3 methylation (Test Example 2); assay type: cell-based, human; conditions: Homo sapiens, KARPAS-422, 72 h
Method: Karpas-422 (Nanjing Kebai, CBP60629) cells were seeded in a 96-well plate (Corning, 3894) at 15,000 cells per well in culture medium (80% 1640 (Hyclone, SH30809.01)+20% FBS (Corning, 35-081-CV)), and then added with different concentrations of compounds for treatment. The cell growth group without adding compounds is used as a positive control (maximum signal control), and the medium is used as a negative control (minimum signal control), while ensuring that in each reaction well, the final concentration of DMSO was 0.2%. Compounds and cells were incubated for 3 days in a cell culture incubator (37° C., 5% CO2). The 96-well plate was taken out from the cell culture incubator and equilibrated to room temperature, and 25 ul of cell suspension was taken out into a 384-well plate. The CCK8 (Beiyuntian, C0040) detection reagent was added, incubated at 37° C. for 1 h, and […] was detected. The rest of the cells followed the procedure of the kit EPIgeneous H3K27Me3 cellular kit (Cisbio, 62KC3PAE) to carry out experiment, read HTRF signal with BMG PHERAStar. […] By GraphPad Prism 6 with log(inhibitor)vs.response-Variable slope model simulation, the IC50 of the compound on cell activity inhibition was calculated. The fitting equation is: Y=Bottom+(Top−Bottom)/(1+10^((Log IC50−X)*HillSlope)), wherein Y represents the inhibition rate, and X represents the known concentration of the compound after Log.

EZH2/SUZ/EED = target: T1, EZH2/SUZ/EED (Homo sapiens, UniProt O75530+Q15022+Q15910); assay: Inhibitory effect on EZH2 by the MTase-Glo method (Test Example 1); assay type: biochemical; conditions: EZH2/SUZ/EED 6.25 nM, H3 peptide 10 μM, SAM 3 μM, 30° C. 3 h, read-out: Test Example 1 WT EZH2 IC50
T1 construct: purchased BPS 51003
T1 sequence (Q15910 2-746 limits assumed): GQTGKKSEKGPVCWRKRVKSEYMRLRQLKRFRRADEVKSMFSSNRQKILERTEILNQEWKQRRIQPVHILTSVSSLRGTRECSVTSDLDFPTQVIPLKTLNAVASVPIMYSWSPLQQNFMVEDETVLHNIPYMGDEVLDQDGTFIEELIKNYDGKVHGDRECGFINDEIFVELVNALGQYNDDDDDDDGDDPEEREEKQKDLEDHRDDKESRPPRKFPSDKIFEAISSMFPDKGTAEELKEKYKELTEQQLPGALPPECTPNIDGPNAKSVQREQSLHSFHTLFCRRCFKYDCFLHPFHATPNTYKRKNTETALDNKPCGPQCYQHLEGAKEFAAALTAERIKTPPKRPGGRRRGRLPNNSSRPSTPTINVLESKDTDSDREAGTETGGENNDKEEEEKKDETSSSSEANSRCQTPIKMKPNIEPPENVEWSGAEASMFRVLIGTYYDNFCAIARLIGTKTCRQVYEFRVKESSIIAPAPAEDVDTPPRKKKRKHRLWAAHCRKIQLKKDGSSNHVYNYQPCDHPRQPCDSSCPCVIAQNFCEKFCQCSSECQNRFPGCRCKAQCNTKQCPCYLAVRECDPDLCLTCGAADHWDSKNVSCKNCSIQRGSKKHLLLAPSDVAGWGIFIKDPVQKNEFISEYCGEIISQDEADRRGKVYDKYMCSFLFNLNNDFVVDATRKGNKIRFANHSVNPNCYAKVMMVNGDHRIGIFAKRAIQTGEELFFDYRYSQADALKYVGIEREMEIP
T1 sequence (Q15022 2-739 partner limits assumed): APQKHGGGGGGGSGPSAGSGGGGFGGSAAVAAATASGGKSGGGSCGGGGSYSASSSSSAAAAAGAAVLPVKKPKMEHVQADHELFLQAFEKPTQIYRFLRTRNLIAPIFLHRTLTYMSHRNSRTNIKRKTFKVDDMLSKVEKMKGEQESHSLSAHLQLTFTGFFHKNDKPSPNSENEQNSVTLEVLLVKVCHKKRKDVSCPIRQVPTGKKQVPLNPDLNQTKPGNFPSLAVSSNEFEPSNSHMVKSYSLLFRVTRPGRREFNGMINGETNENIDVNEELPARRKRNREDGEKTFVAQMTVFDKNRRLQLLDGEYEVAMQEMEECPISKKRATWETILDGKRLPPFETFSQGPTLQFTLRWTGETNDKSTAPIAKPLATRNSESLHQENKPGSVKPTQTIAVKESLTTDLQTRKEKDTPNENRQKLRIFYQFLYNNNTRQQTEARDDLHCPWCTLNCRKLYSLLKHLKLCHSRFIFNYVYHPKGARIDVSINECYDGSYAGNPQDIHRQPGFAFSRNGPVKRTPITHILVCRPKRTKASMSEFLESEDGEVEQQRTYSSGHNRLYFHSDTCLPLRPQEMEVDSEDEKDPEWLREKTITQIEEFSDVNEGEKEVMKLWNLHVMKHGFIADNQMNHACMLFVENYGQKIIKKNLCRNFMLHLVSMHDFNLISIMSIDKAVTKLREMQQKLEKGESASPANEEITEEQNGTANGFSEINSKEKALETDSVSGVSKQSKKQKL
T1 sequence (O75530 2-441 partner limits assumed): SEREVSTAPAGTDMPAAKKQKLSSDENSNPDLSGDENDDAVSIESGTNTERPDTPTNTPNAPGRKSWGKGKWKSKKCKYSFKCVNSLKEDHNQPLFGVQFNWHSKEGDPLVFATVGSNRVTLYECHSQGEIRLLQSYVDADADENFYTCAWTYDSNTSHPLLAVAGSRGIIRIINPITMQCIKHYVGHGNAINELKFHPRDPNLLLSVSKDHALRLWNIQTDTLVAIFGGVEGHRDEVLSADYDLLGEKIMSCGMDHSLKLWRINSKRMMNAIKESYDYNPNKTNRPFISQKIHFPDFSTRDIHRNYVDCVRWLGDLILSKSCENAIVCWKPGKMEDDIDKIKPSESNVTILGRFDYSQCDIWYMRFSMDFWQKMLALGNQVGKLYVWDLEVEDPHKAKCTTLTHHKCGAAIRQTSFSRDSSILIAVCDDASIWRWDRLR
In short: (§1)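 EZH2/SUZ/EED (6.25 nM) or EZH1/SUZ/EED (25 nM) pre-incubated 15 min with compound in pH 7.6 Bicine buffer, 0.5% DMSO. Biotinylated H3(21-44) peptide 10 μM plus SAM 3 μM reacted 3 h at 30 °C; MTase-Glo luminescence normalized to controls, IC50 from variable-slope fit.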

EZH1/SUZ/EED = target: T2, EZH1/SUZ/EED (Homo sapiens, UniProt O75530+Q15022+Q92800); assay: Inhibitory effect on EZH1 by the MTase-Glo method (Test Example 1); assay type: biochemical; conditions: EZH1/SUZ/EED 25 nM, H3 peptide 10 μM, SAM 3 μM, 30° C. 3 h, read-out: Test Example 1 WT EZH1 IC50
T2 construct: purchased BPS 51006
T2 sequence (Q92800 2-747 limits assumed): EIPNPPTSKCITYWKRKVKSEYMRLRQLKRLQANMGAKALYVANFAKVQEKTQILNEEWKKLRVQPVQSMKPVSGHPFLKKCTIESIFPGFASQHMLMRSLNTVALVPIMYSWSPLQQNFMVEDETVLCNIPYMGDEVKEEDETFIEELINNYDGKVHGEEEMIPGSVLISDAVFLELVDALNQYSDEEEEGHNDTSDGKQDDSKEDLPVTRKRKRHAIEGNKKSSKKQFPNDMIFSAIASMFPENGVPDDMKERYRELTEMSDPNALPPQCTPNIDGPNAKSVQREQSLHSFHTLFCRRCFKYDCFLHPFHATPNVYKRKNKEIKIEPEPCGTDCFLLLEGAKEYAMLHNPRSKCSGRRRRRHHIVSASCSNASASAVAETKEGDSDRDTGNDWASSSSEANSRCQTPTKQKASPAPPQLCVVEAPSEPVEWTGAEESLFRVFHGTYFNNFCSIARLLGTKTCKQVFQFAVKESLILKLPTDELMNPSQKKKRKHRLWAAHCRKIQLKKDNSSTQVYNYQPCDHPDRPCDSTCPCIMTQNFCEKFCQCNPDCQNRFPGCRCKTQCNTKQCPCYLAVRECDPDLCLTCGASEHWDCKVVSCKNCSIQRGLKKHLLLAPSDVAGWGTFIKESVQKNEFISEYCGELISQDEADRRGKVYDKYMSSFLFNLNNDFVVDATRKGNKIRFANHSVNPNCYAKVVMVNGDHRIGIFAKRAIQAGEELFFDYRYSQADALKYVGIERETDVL
T2 sequence (Q15022 2-739 partner limits assumed): as the sequence (Q15022 2-739 partner limits assumed) above
T2 sequence (O75530 2-441 partner limits assumed): as the sequence (O75530 2-441 partner limits assumed) above
In short: as §1

[2] = Karpas-422 cells, Cell-Titer Glo on the eleventh day, read-out: Test Example 3 Karpas-422 cell anti-proliferation IC50
[3] = Karpas-422 cells, 3 days incubation, HTRF signal, read-out: Test Example 2 H3K27Me3 inhibition (Karpas-422) IC50
[4] = KARPAS-422, read-out: Test Example 3 Karpas-422 cell anti-proliferation IC50(nM)

In the case of `COc1cc(C)[nH]c(=O)c1CNC(=O)c1cc(Cl)c2c(c1C)O[C@@H]([C@H]1CC[C@H](N3CC[C@H](OC)C3)CC1)CO2` [Compound 120], the IC50 (Karpas-422 cells; [2]) is reported as 31.5 nM.

`COc1cc(C)[nH]c(=O)c1CNC(=O)c1cc(Cl)c2c(c1C)O[C@@H]([C@H]1CC[C@@H](N3CC[C@@H](OC)C3)CC1)CO2` [Compound 121] showed an IC50 [1, 3] of 92.3 nM and an IC50 (Karpas-422 cells; [2]) of 35.8 nM.

`COc1cc(C)[nH]c(=O)c1CNC(=O)c1cc(Cl)c2c(c1C)O[C@@H]([C@H]1CC[C@H](N3CC[C@@H](OC)C3)CC1)CO2` [Compound 122] showed an IC50 (Karpas-422 cells; [2]) of 472 nM.

For `CSc1cc(C)[nH]c(=O)c1CNC(=O)c1cc(C#N)c2c(c1C)O[C@@H]([C@H]1CC[C@@H](N3CC(OC(F)F)C3)CC1)CO2` [Compound 163], the IC50 (EZH2/SUZ/EED) was 0.0071 µM, the IC50 [1, 3] was 1.9 nM and the IC50 (Karpas-422 cells; [2]) was 1.7 nM.

`C#Cc1cc(C(=O)NCc2c(SC)cc(C)[nH]c2=O)c(C)c2c1OC[C@H]([C@H]1CC[C@@H](N3CC(OC)C3)CC1)O2` [Compound 165] was tested, and the IC50 [1, 3] was 1.4 nM and the IC50 (Karpas-422 cells; [2]) was 1.2 nM.

Compound `Cc1c(C(=O)NCC2COC2)cc(Cl)c2c1O[C@@H]([C@H]1CC[C@@H](N(C)C)CC1)CO2` [Compound 167] has an IC50 (Karpas-422 cells; [4]) greater than 1000 nM.

`Cc1c(C(=O)NCC2COC2)cc(Cl)c2c1O[C@@H]([C@H]1CC[C@H](N(C)C)CC1)CO2` [Compound 168] showed an IC50 (Karpas-422 cells; [4]) greater than 1000 nM.

Work on `COC1CN([C@H]2CC[C@H]([C@H]3COc4c(F)cc(C(=O)NCc5c(SC)cc(C)[nH]c5=O)c(C)c4O3)CC2)C1` [Compound 170] yielded an IC50 (Karpas-422 cells; [2]) of 46.8 nM.

`COC1CN([C@H]2CC[C@H]([C@@H]3COc4c(F)cc(C(=O)NCc5c(SC)cc(C)[nH]c5=O)c(C)c4O3)CC2)C1` [Compound 171] showed an IC50 [1, 3] greater than 1000 nM and an IC50 (Karpas-422 cells; [2]) greater than 1000 nM.

`COC1CN([C@H]2CC[C@@H]([C@@H]3COc4c(F)cc(C(=O)NCc5c(SC)cc(C)[nH]c5=O)c(C)c4O3)CC2)C1` [Compound 172] showed an IC50 (Karpas-422 cells; [2]) of 373 nM.

`Cc1cc(Cl)c(CNC(=O)c2cc(Cl)c3c(c2C)O[C@@H]([C@H]2CC[C@@H](N(C)C)CC2)CO3)c(=O)[nH]1` [Compound 173] gave an IC50 (Karpas-422 cells; [2]) of 124 nM.

`Cc1cc(Cl)c(CNC(=O)c2cc(Cl)c3c(c2C)O[C@@H]([C@H]2CC[C@H](N(C)C)CC2)CO3)c(=O)[nH]1` [Compound 174] showed an IC50 (EZH2/SUZ/EED) of 0.0031 µM, an IC50 (Karpas-422 cells; [2]) of 5.6 nM and an IC50 (EZH1/SUZ/EED) of 0.0072 µM.

`COC1CN([C@H]2CC[C@H]([C@H]3COc4c(Cl)cc(C(=O)NCc5c(Cl)cc(C)[nH]c5=O)c(C)c4O3)CC2)C1` [Compound 176] was tested, and the IC50 (Karpas-422 cells; [2]) was 197 nM.

Compound `COc1cc(C)[nH]c(=O)c1CNC(=O)c1cc(Cl)c2c(c1C)O[C@@H]([C@H]1CC[C@@H](OCCF)CC1)CO2` [Compound 179] has an IC50 (Karpas-422 cells; [2]) of 36.6 nM.

`COc1cc(C)[nH]c(=O)c1CNC(=O)c1cc(Cl)c2c(c1C)O[C@@H]([C@H]1CC[C@H](OCCF)CC1)CO2` [Compound 180] showed an IC50 (Karpas-422 cells; [2]) of 10.8 nM.

Compound `Cc1cc(C)c(CNC(=O)c2cc(Cl)c3c(c2C)CC(C)(C2CCC(N(C)C)CC2)O3)c(=O)[nH]1` (stereo not shown) [Compound 181] has an IC50 (EZH2/SUZ/EED) of 0.0304 µM, an IC50 ([1]; read-out: Test Example 2 H3K27Me3 inhibition (Karpas-422) IC50(nM)) of 410 nM and an IC50 (EZH1/SUZ/EED) of 1.35 µM.
